Read-outs that look alike come from different tables or passages of the source.
Legend:
[1] = target: Human CB2R (Cannabinoid receptor 2) (Homo sapiens, UniProt P34972); assay: CB-2 in vitro cAMP (HTRF) assay; type: cell-based; conditions: HEK cells, cAMP HTRF, 250 nM forskolin; mean where tested more than once; read-out: CB2 HEK_cAMP EC50
In short: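 HEK-293 cells stably expressing receptor, plated overnight at 4E5 cells/mL, tested with 1/3 serial dilutions of compound in HBSS/HEPES/BSA buffer with 0.5 mM IBMX and forskolin (diluted to 1.5 μM in buffer). cAMP measured by competitive HTRF immunoassay (d2-cAMP, cryptate anti-cAMP), signal inversely proportional to cAMP.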

[2] = target: Human CB1R (Cannabinoid receptor 1) (Homo sapiens, UniProt P21554); assay: CB-1 in vitro cAMP (HTRF) assay; type: cell-based; conditions: cAMP HTRF, 250 nM forskolin, mean where tested more than once
In short: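 Intracellular cAMP from HTRF ratio (d2-cAMP vs Eu-cryptate anti-cAMP), converted to nM via per-plate standards, in stable human CB1R HEK-293 cells.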

[3] = HEK cells, read-out: CB1 HEK_cAMP EC50

Sequence of Human CB2R (Cannabinoid receptor 2) (P34972 whole entry): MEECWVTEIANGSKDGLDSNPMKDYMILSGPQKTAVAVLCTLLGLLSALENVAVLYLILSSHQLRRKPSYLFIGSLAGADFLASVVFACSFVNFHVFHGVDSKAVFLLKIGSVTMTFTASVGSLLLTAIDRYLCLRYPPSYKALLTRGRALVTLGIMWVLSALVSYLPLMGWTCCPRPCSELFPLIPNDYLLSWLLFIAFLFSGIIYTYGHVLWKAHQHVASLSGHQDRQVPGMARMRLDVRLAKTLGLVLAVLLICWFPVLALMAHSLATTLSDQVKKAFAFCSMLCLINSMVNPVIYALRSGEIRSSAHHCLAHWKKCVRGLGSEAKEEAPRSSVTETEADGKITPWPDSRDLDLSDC
Sequence of Human CB1R (Cannabinoid receptor 1) (P21554 whole entry): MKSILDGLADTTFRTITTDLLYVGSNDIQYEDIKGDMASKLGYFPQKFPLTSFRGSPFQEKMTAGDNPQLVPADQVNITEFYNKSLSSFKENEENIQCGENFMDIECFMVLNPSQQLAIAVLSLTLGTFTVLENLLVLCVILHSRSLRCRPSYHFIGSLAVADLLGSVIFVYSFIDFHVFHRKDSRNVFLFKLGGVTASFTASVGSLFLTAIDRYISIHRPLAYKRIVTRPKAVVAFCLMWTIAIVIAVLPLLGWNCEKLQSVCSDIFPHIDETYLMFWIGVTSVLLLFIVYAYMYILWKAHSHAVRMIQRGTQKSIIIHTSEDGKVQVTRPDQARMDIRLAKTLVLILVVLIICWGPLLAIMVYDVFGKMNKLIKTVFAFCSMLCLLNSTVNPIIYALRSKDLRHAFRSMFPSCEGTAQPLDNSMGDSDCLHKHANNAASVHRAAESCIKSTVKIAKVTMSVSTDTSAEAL

Row | SMILES | EC50 [1] [µM] | EC50 [2, 3] [µM] | EC50 ([2]; CB1 HEK_cAMP EC50, HEK cells) [µM]
1 | Cc1ccc(C(c2ccc(Cl)cc2)c2ccc3nc(C4CC4)n(C4CCN(Cc5cccc(C(=O)O)c5)CC4)c3c2)cc1 (centres unmarked) [Example 100] | 6.3 | 0.0194 | 
2 | O=C(O)c1cccc(CN2CCC(n3c(C4CC4)nc4ccc(C(c5ccccc5)c5ccc(Cl)cc5)cc43)CC2)c1 (centres unmarked) [Example 101] | > 10 | 0.0285 | 
3 | O=C(OC[C@@H](O)[C@H](O)CO)N1CCC(n2c(C3CC3)nc3ccc(C(c4ccc(Cl)cc4)c4ccc(Cl)cc4)cc32)CC1 [Example 102] | 8.14 | 0.0333 | 
4 | NC(=O)c1cccc(CN2CCC(n3c(C4CC4)nc4ccc(C(c5ccc(Cl)cc5)c5ccc(Cl)cc5)cc43)CC2)n1 [Example 104] | 6 | 0.0121 | 
5 | NC(=O)c1ccc(CN2CCC(n3c(C4CC4)nc4ccc(C(c5ccc(Cl)cc5)c5ccc(Cl)cc5)cc43)CC2)cn1 [Example 105] | 8 | 0.0051 | 
6 | O=C(O)c1ccc(CN2CCC(n3c(C4CC4)nc4ccc(C(c5ccc(Cl)cc5)c5ccc(Cl)cc5)cc43)CC2)cn1 [Example 106] | > 10 | 0.0601 | 
7 | C=C(CO)c1nc2ccc(C(c3ccc(Cl)cc3)c3ccc(Cl)cc3)cc2n1C1CCN(S(=O)(=O)C(F)(F)F)CC1 [Example 118] | > 10 | 0.098 | 
8 | Clc1ccc(C(c2ccc(Cl)cc2)c2ccc3nc(C4CC4)n(C4CCOCC4)c3c2)cc1 [Example 119] | 6.74 | 0.0949 | 
9 | Clc1ccc(C(c2ccc(Cl)cc2)c2ccc3nc(C4CC4)n(CC4CCOCC4)c3c2)cc1 [Example 120] | 5.43 |  | 0.0249
10 | NC(=O)c1cncc(CN2CCC(n3c(C4CC4)nc4ccc(C(c5ccc(Cl)cc5)c5ccc(Cl)cc5)cc43)CC2)c1 [Example 121] | 7.97 | 0.0051 | 
11 | NC(=O)c1ccc(CN2CCC(n3c(C4CC4)nc4ccc(C(c5ccc(Cl)cc5)c5ccc(Cl)cc5)cc43)CC2)nc1 [Example 122] | 9.1 | 0.0049 | 
12 | O=C(O)c1cncc(CN2CCC(n3c(C4CC4)nc4ccc(C(c5ccc(Cl)cc5)c5ccc(Cl)cc5)cc43)CC2)c1 [Example 123] | 7.5 | 0.0134 | 
13 | NC(=O)c1ccc(CN2CCC(n3c(C4CC4)nc4ccc(C(c5ccc(Cl)cc5)c5ccc(Cl)cc5)cc43)CC2)s1 [Example 126] | 7.8 | 0.0042 | 
14 | NC(=O)c1csc(CN2CCC(n3c(C4CC4)nc4ccc(C(c5ccc(Cl)cc5)c5ccc(Cl)cc5)cc43)CC2)c1 [Example 127] | > 10 | 0.005 | 
15 | O=C(O)c1ccc(CN2CCC(n3c(C4CC4)nc4ccc(C(c5ccc(Cl)cc5)c5ccc(Cl)cc5)cc43)CC2)s1 [Example 128] | 4.89 | 0.0069 | 
16 | O=C(O)c1csc(CN2CCC(n3c(C4CC4)nc4ccc(C(c5ccc(Cl)cc5)c5ccc(Cl)cc5)cc43)CC2)c1 [Example 130] | 8.1 | 0.0155 | 
17 | NC(=O)c1ccc(CN2CCC(n3c(C4CC4)nc4ccc(C(c5ccc(Cl)cc5)c5ccc(Cl)cc5)cc43)CC2)o1 [Example 131] | 6.5 | 0.008 | 
18 | O=C(O)c1ccc(Cn2c(C3CC3)nc3ccc(C(c4ccc(Cl)cc4)c4ccc(Cl)cc4)cc32)cc1 [Example 132] | > 10 | > 10 | 
19 | NC(=O)c1ccc(Cn2c(C3CC3)nc3ccc(C(c4ccc(Cl)cc4)c4ccc(Cl)cc4)cc32)cc1 [Example 133] | 3.5 | 0.812 | 
20 | O=C(O)[C@H]1CC[C@H](n2c(C3CC3)nc3ccc(C(c4ccc(Cl)cc4)c4ccc(Cl)cc4)cc32)CC1 [Example 134] | > 10 | 4.34 | 
21 | NC(=O)[C@H]1CC[C@H](n2c(C3CC3)nc3ccc(C(c4ccc(Cl)cc4)c4ccc(Cl)cc4)cc32)CC1 [Example 135] | > 10 | 0.0532 | 
22 | NC(=O)[C@H]1CC[C@@H](n2c(C3CC3)nc3ccc(C(c4ccc(Cl)cc4)c4ccc(Cl)cc4)cc32)CC1 [Example 136] | 9.1 | 0.032 | 
23 | O=C(O)[C@H]1CC[C@@H](n2c(C3CC3)nc3ccc(C(c4ccc(Cl)cc4)c4ccc(Cl)cc4)cc32)CC1 [Example 137] | > 10 | 9 | 
24 | NC(=O)c1ccc(CN2CCC(n3c(C4CC4)nc4ccc(C(c5ccc(Cl)cc5)c5ccc(Cl)cc5)cc43)CC2)cc1 [Example 138] | 3.9 | 0.0139 | 
25 | NC(=O)c1cccc(CN2CCC(n3c(C4CC4)nc4ccc(C(c5ccc(Cl)cc5)c5ccc(Cl)cc5)cc43)CC2)c1 [Example 141] | > 10 | 0.0033 | 
26 | NC(=O)COc1ccc(N2CCC(n3c(C4CC4)nc4ccc(C(c5ccc(Cl)cc5)c5ccc(Cl)cc5)cc43)CC2)cc1 [Example 142] | 5.25 | 0.0215 | 

Row | SMILES | EC50 [1] [µM] | EC50 [2, 3] [µM] | EC50 ([2]; CB1 HEK_cAMP EC50, HEK cells) [µM]
27 | O=C(O)COCC(c1ccc(Cl)cc1)(c1ccc(Cl)cc1)c1ccc2nc(C3CC3)n(C3CCN(S(=O)(=O)C(F)(F)F)CC3)c2c1 [Example 143] | > 10 | 3.92 | 
28 | CCOC(=O)COc1cccc(Cn2c(C3CC3)nc3ccc(C(c4ccc(Cl)cc4)c4ccc(Cl)cc4)cc32)c1 [Example 144] | 4.7 | 0.0152 | 
29 | COc1cccc(Cn2c(C3CC3)nc3ccc(C(c4ccc(Cl)cc4)c4ccc(Cl)cc4)cc32)c1 [Example 146] | > 10 | 0.0337 | 
30 | O=C(O)c1ccc(CN2CCC(n3c(C4CC4)nc4ccc(C(c5ccc(Cl)cc5)c5ccc(Cl)cc5)cc43)CC2)cc1 [Example 147] | 7.56 | 0.0102 | 
31 | O=C(O)c1ccc(C(O)(c2ccc(Cl)cc2)c2ccc3nc(C4CC4)n(C4CCN(S(=O)(=O)C(F)(F)F)CC4)c3c2)cc1 (centres unmarked) [Example 150] | > 10 | 0.972 | 
32 | Nc1ccc(S(=O)(=O)N2CCC(n3c(C4CC4)nc4ccc(C(c5ccc(Cl)cc5)c5ccc(Cl)cc5)cc43)CC2)cc1 [Example 151] | > 10 | 0.0665 | 
33 | O=C(O)COc1ccc(N2CCC(n3c(C4CC4)nc4ccc(C(c5ccc(Cl)cc5)c5ccc(Cl)cc5)cc43)CC2)cc1 [Example 152] | 6.4 | 1.59 | 
34 | NC(=O)COc1cccc(N2CCC(n3c(C4CC4)nc4ccc(C(c5ccc(Cl)cc5)c5ccc(Cl)cc5)cc43)CC2)c1 [Example 153] | 3.61 | 0.0087 | 
35 | O=C(O)COc1cccc(N2CCC(n3c(C4CC4)nc4ccc(C(c5ccc(Cl)cc5)c5ccc(Cl)cc5)cc43)CC2)c1 [Example 154] | 8 | 0.311 | 
36 | O=C(O)Cc1ccc(N2CCC(n3c(C4CC4)nc4ccc(C(c5ccc(Cl)cc5)c5ccc(Cl)cc5)cc43)CC2)cc1 [Example 157] | 3.38 | 0.19 | 
37 | O=C(O)Cc1cccc(N2CCC(n3c(C4CC4)nc4ccc(C(c5ccc(Cl)cc5)c5ccc(Cl)cc5)cc43)CC2)c1 [Example 158] | 5.8 | 0.0679 | 
38 | NC(=O)c1ccc(N2CCC(n3c(C4CC4)nc4ccc(C(c5ccc(Cl)cc5)c5ccc(Cl)cc5)cc43)CC2)cc1 [Example 161] | 2.11 | 0.008 | 
39 | NC(=O)c1cccc(N2CCC(n3c(C4CC4)nc4ccc(C(c5ccc(Cl)cc5)c5ccc(Cl)cc5)cc43)CC2)c1 [Example 162] | 4.49 | 0.0062 | 
40 | O=C(O)c1cccc(N2CCC(n3c(C4CC4)nc4ccc(C(c5ccc(Cl)cc5)c5ccc(Cl)cc5)cc43)CC2)c1 [Example 163] | 7.78 | 0.0916 | 
41 | O=C(O)COc1ccc(-n2c(C3CC3)nc3ccc(C(c4ccc(Cl)cc4)c4ccc(Cl)cc4)cc32)cc1 [Example 165] | > 10 | > 10 | 
42 | O=C(O)c1ccc(S(=O)(=O)N2CCC(n3c(C4CC4)nc4ccc(C(c5ccc(Cl)cc5)c5ccc(Cl)cc5)cc43)CC2)cc1C(F)(F)F [Example 166] | 5.02 | 0.0037 | 
43 | Cc1ccc(S(=O)(=O)N2CCC(n3c(C4CC4)nc4ccc(C(c5ccc(Cl)cc5)c5ccc(Cl)cc5)cc43)CC2)cc1C(N)=O [Example 168] | > 10 | 0.0912 | 
44 | NC(=O)COc1ccc(-n2c(C3CC3)nc3ccc(C(c4ccc(Cl)cc4)c4ccc(Cl)cc4)cc32)cc1 [Example 169] | 7.9 | 0.045 | 
45 | CCOC(=O)COc1ccc(-n2c(C3CC3)nc3ccc(C(c4ccc(Cl)cc4)c4ccc(Cl)cc4)cc32)cc1 [Example 170] | 0.314 | 0.0044 | 
46 | Oc1ccc(-n2c(C3CC3)nc3ccc(C(c4ccc(Cl)cc4)c4ccc(Cl)cc4)cc32)cc1 [Example 171] | > 10 | 0.167 | 
47 | NC(=O)COc1cccc(-n2c(C3CC3)nc3ccc(C(c4ccc(Cl)cc4)c4ccc(Cl)cc4)cc32)c1 [Example 172] | > 10 | 0.0812 | 
48 | CCOC(=O)COc1cccc(-n2c(C3CC3)nc3ccc(C(c4ccc(Cl)cc4)c4ccc(Cl)cc4)cc32)c1 [Example 173] | 9.2 | 0.0559 | 
49 | COC(=O)c1cccc(-n2c(C3CC3)nc3ccc(C(c4ccc(Cl)cc4)c4ccc(Cl)cc4)cc32)c1 [Example 174] | > 10 | 6.55 | 
50 | CCOC(=O)COc1ccc(Cn2c(C3CC3)nc3ccc(C(c4ccc(Cl)cc4)c4ccc(Cl)cc4)cc32)cc1 [Example 175] | 4.75 | 5.42 | 
51 | O=C(O)COc1ccc(Cn2c(C3CC3)nc3ccc(C(c4ccc(Cl)cc4)c4ccc(Cl)cc4)cc32)cc1 [Example 176] | > 10 | > 10 | 
52 | COc1ccc(Cn2c(C3CC3)nc3ccc(C(c4ccc(Cl)cc4)c4ccc(Cl)cc4)cc32)cc1 [Example 177] | 7.9 | 0.0967 | 
